Reference: patent publication US7560468B2, “Substituted 1,4,8-triazaspiro[4,5]decan-2-one compounds” (Gruenenthal GmbH, priority 2004, dated 2009)

Columns and labels:
human CB2 receptor = human CB2 receptor (Homo sapiens, UniProt P34972); assay: Affinity to the cannabinoid receptor CB2, displacement of [3H]-CP 55,940; conditions: for Inhibition CB2 10 μM, % inhibition: membranes of HEK 293EBNA cells with human CB2 receptor; for Ki: CB2, Cheng Prusoff correction of IC50; for inhibition at 10 µM: read-out: Inhibition CB2 10 μM, % inhibition
Chain of human CB2 receptor (P34972 whole entry): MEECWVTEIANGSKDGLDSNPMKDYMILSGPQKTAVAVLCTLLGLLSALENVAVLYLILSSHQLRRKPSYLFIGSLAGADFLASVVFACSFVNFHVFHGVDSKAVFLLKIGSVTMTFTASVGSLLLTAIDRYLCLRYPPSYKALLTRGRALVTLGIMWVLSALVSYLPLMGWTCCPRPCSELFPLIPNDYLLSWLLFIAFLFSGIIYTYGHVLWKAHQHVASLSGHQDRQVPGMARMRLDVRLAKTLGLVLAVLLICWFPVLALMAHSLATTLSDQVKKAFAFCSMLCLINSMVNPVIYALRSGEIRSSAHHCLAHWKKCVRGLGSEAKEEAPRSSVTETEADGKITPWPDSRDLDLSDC
Description: The radioligand used was tritium-labeled 5-(1,1-dimethylheptyl)-2-(5-hydroxypropyl)cyclohexyl)-1-alpha,2-beta,5-alpha)-phenol (^[3]H—CP 55,940 with 103.4 of Ci/mmol, 1 m Ci/mL). Determination was carried out in a test buffer comprising 50 mM of Tris-HCl, 2.5 mm of EDTA, 5 mm of MgCl2 and 1.0 mg/mL of fatty acid-free BSA. The test substances were in each case dissolved in DMSO.
The affinity of the compounds of the invention to the CB2 receptor is determined by their ability to displace ^[3]H—CP from 55,940 of CB2 receptors in membranes of HEK 293 EBNA cells. For this purpose 8 μg of membranes (20 mL of a solution of membranes in a concentration of 400 g/ml) are incubated in wells of a microtiter plate with a 0.33 nM of solution of [3]H-CP 55,949 (120 of Ci/mmol) in a total volume of test buffer of 200 μL for 90 minutes at 30° C.
Subsequently, either the test substances or WIN 55,212-2 for determination the non-specific binding are placed, dissolved in each case in dimethyl sulphoxide, in the wells so that in each case a concentration of the relevant substances of 10 μM is obtained.
Incubation is continued for a further 40 minutes at 30° C. dc. […] The filters are washed nine times with 0.5 mL of ice-cold washing buffer (50 nM of Tris-HCl, 5 mM of MgCl2, 2.5 mm of EDTA, 2% of BSA, pH 7.4), air-dried, placed in scintillation liquid, and the radioactivity is determined with the aid of a scintillation counter.
The percentage displacement of the radio-active ligand ^[3]H—CP 55,940 from its binding to the CB2 receptor is indicated as percentage inhibition of the specific binding. In order to determine Ki the IC50 inhibition concentrations are calculated based on of the percentage displacement achieved by the compounds of the general formula I to be tested at various concentrations causing a 50 percent displacement of the radioactive ligands.

5-HT transporter = molecular target: T1, 5-HT transporter (Rattus norvegicus, UniProt P31652); assay: Inhibition of 5-HT uptake in synaptosomes; type: biochemical; conditions: for inhibition at 1 µM: read-out: Uptake_5-HT, rat, 1 μM, % inhibition
T1 construct: from tissue; host or cells: rat brain synaptosomes (marrow/medulla and pons), P2 fraction
T1 sequence (P31652 whole entry): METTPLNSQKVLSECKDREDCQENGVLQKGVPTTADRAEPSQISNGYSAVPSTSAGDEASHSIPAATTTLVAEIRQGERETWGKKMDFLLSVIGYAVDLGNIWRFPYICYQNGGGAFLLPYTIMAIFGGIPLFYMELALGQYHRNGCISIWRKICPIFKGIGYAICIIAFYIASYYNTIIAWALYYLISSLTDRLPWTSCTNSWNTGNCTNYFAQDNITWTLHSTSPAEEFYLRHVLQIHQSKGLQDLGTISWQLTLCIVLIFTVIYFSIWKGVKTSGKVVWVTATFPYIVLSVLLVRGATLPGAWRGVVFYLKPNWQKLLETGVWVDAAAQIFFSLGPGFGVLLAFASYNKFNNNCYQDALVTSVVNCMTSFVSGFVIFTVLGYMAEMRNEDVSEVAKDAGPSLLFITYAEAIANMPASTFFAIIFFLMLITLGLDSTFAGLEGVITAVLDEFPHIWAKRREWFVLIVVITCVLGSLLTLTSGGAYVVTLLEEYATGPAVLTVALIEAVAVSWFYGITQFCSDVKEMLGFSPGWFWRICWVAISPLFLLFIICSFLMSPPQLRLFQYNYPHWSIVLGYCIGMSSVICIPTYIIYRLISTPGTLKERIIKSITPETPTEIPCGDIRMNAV

[1] = system: batrachotoxin (BTX) binding site of the sodium channel; assay: Affinity to the batrachotoxin (BTX) binding site of the sodium channel; conditions: rat cerebrocortex synaptosomes, [3H]-batrachotoxinin A20 α-benzoate 10 nM; test concentration not given
NA transporter = assay: Inhibition of noradrenalin uptake in synaptosomes; type: biochemical

Compound | Inhibition CB2 10 μM, % inhibition (human CB2 receptor) [%] | Ki (human CB2 receptor) [µM] | Uptake_5-HT, rat, 1 μM, % inhibition (5-HT transporter) [%] | inhibition at 1 µM (5-HT transporter) [%] | inhibition at 10 µM (human CB2 receptor) [%] | BTX Inhibition [1] | Uptake (NA), rat, 10 μM, % inhibition (NA transporter) [%]
1,3-Dibenzyl-8-(4-chlorobenzolsulfonyl)-1,4,8-triazaspiro[4,5]decan-2-one [Example 248] | 87 | 1.2 |  |  |  |  | 
1,3-Dibenzyl-8-(4-methoxy-benzolsulfonyl)-1,4,8-triazaspiro[4,5]decan-2-one [Example 249] | 80 | 3.5 |  |  |  |  | 
8-Benzolsulfonyl-1,3-dibenzyl-1,4,8-triazaspiro[4,5]decan-2-one [Example 247] | 72 | 4 |  |  |  |  | 
CC(C)C1NC2(CCN(S(=O)(=O)c3ccccc3Cl)CC2)NC1=O (stereo not shown) [Example 8, 8-(2-Chlorobenzolsulfonyl)-3-isopropyl-1,4,8-triazaspiro[4,5]decan-2-one] | 41 |  | 55 |  |  |  | 
O=C1C(Cc2ccccc2)NC2(CCN(S(=O)(=O)c3cccs3)CC2)N1Cc1ccccc1 (stereo not shown) [Example 16, 1,3-Dibenzyl-8-(thiophen-2-sulfonyl)-1,4,8-triazaspiro[4,5]decan-2-one] |  |  |  | 82 | 58 | 50 | 
O=C1C(Cc2ccccc2)NC2(CCN(S(=O)(=O)c3cc(Cl)sc3Cl)CC2)N1Cc1ccccc1 (stereo not shown) [Example 20, 1,3-Dibenzyl-8-(2,5-dichlorothiophen-3-sulfonyl)-1,4,8-triazaspiro[4,5]decan-2-one] |  |  |  | 81 | 66 | 54 | 
Cc1cc(C)c(C)c(S(=O)(=O)N2CCC3(CC2)NC(Cc2ccccc2)C(=O)N3Cc2ccccc2)c1C (stereo not shown) [Example 24, 1,3-Dibenzyl-8-(2,3,5,6-tetramethylbenzolsulfonyl)-1,4,8-triazaspiro[4,5]decan-2-one] | 56 |  | 66 |  |  | 67 | 
CCCCN1C(=O)C(Cc2ccccc2)NC12CCN(S(=O)(=O)c1ccc(C(C)(C)CC)cc1)CC2 (stereo not shown) [Example 28, 3-Benzyl-1-butyl-8-[4-(1,1-dimethylpropyl)benzolesulfonyl]-1,4,8-triazaspiro[4,5]decan-2-one] | 40 |  | 75 |  |  | 41 | 
COc1cc(C)c(S(=O)(=O)N2CCC3(CC2)NC(Cc2ccccc2)C(=O)N3Cc2ccccc2)c(C)c1C (stereo not shown) [Example 31, 1,3-Dibenzyl-8-(4-methoxy-2,3,6-trimethylbenzolsulfonyl)-1,4,8-triazaspiro[4,5]decan-2-one] | 57 |  | 67 |  |  | 82 | 
CCc1ccc(S(=O)(=O)N2CCC3(CC2)NC(Cc2ccccc2)C(=O)N3Cc2ccccc2)cc1 (stereo not shown) [Example 35, 1,3-Dibenzyl-8-(4-ethylbenzolsulfonyl)-1,4,8-triazaspiro[4,5]decan-2-one] | 61 |  | 79 |  |  | 54 | 
CSCCC1NC2(CCN(S(=O)(=O)c3ccc(F)cc3F)CC2)N(Cc2cc(C)cc(C)c2)C1=O (stereo not shown) [Example 42, 8-(2,4-Difluorobenzolsulfonyl)-1-(3,5-dimethylbenzyl)-3-(2-methylsulfanylethyl)-1,4,8-triazaspiro[4,5]decan-2-one] | 48 |  |  |  |  | 56 | 
CCCCN1C(=O)C(C(C)C)NC12CCN(C(=S)NC(C)C)CC2 (stereo not shown) [Example 107, 1-Butyl-3-isopropyl-2-oxo-1,4,8-triazaspiro[4,5]decan-8-thiocarboxylic acid isopropylamide] |  |  |  | 28 | 56 |  | 
CCCCN1C(=O)C(CCSC)NC12CCN(C(=S)Nc1ccc(F)cc1)CC2 (stereo not shown) [Example 189, 1-Butyl-3-(2-methylsulfanylethyl)-2-oxo-1,4,8-triazaspiro[4,5]decan-8-thiocarboxylic acid (4-fluorobenzol)amide] |  |  | 66 |  |  | 41 | 30
CSCCC1NC2(CCN(C(=O)Nc3cccc(C#N)c3)CC2)N(Cc2ccccc2)C1=O (stereo not shown) [Example 208, 1-Benzyl-3-(2-methylsulfanylethyl)-2-oxo-1,4,8-triazaspiro[4,5]decan-8-carboxylic acid (3-cyanobenzol)amide] |  |  | 45 |  |  | 41 | 49
CCCCN1C(=O)C(CCSC)NC12CCN(C(=O)Nc1cc(OC)c(OC)c(OC)c1)CC2 (stereo not shown) [Example 210, 1-Butyl-3-(2-methylsulfanylethyl)-2-oxo-1,4,8-triazaspiro[4,5]decan-8-carboxylic acid (3,4,5-trimethoxy-benzol)amide] |  |  | 32 |  |  | 44 | 36
CSCCC1NC2(CCN(C(=O)Nc3ccc(Cl)c(C(F)(F)F)c3)CC2)N(Cc2ccccc2)C1=O (stereo not shown) [Example 211, 1-Benzyl-3-(2-methylsulfanylethyl)-2-oxo-1,4,8-triazaspiro[4,5]decan-8-carboxylic acid (4-chloro-3-trifluoromethylbenzol)amide] |  |  | 45 |  |  | 85 | 40
CCOc1ccc(NC(=O)N2CCC3(CC2)NC(CCSC)C(=O)N3Cc2ccccc2)cc1 (stereo not shown) [Example 213, 1-Benzyl-3-(2-methylsulfanylethyl)-2-oxo-1,4,8-triazaspiro[4,5]decan-8-carboxylic acid (4-ethoxy-benzol)amide] |  |  | 39 |  |  | 41 | 37
CSCCC1NC2(CCN(C(=O)Nc3cccc(C(C)=O)c3)CC2)N(Cc2ccccc2)C1=O (stereo not shown) [Example 214, 1-Benzyl-3-(2-methylsulfanylethyl)-2-oxo-1,4,8-triazaspiro[4,5]decan-8-carboxylic acid (3-acetylbenzol)amide] |  |  | 51 |  |  | 40 | 36
CCCCN1C(=O)C(C(C)C)NC12CCN(C(=O)Nc1cccc(C(=O)OCC)c1)CC2 (stereo not shown) [Example 215, Ethyl 3-[(1-butyl-3-isopropyl-2-oxo-1,4,8-triazaspiro[4,5]decan-8-carbonyl)amino]-benzoate] |  |  |  | 29 |  | 51 | 33
CCCCN1C(=O)C(CCSC)NC12CCN(C(=O)NCc1ccc(Cl)c(Cl)c1)CC2 (stereo not shown) [Example 219, 1-Butyl-3-(2-methylsulfanylethyl)-2-oxo-1,4,8-triazaspiro[4,5]decan-8-carboxylic acid 3,4-dichlorobenzylamide] |  |  |  | 37 |  | 70 | 42
C=CCN1C(=O)C(C(C)C)NC12CCN(C(=O)Nc1ccc(OC(F)(F)F)cc1)CC2 (stereo not shown) [Example 220, 1-Allyl-3-isopropyl-2-oxo-1,4,8-triazaspiro[4,5]decan-8-carboxylic acid (4-trifluoromethoxy-benzol)amide] |  |  | 39 |  |  | 44 | 39
CSCCC1NC2(CCN(C(=O)Nc3ccccc3)CC2)N(Cc2ccccc2C#N)C1=O (stereo not shown) [Example 224, 1-(2-Cyanobenzyl)-3-(2-methylsulfanylethyl)-2-oxo-1,4,8-triazaspiro[4,5]decan-8-carboxylic acid benzolamide] |  |  | 37 |  |  | 30 | 38
CCOC(=O)CN1C(=O)C(Cc2ccccc2)NC12CCN(C(=O)NCc1ccc(Cl)c(Cl)c1)CC2 (stereo not shown) [Example 225, Ethyl[3-benzyl-8-(3,4-dichlorobenzylcarbamoyl)-2-oxo-1,4,8-triazaspiro[4,5]dec-1-yl]-acetate] |  |  |  | 43 |  | 77 | 33
COc1cccc(NC(=O)N2CCC3(CC2)NC(CCSC)C(=O)N3Cc2cccc(C#N)c2)c1 (stereo not shown) [Example 236, 1-(3-Cyanobenzyl)-3-(2-methylsulfanylethyl)-2-oxo-1,4,8-triazaspiro[4,5]decan-8-carboxylic acid (3-methoxy-benzol)amide] |  |  | 32 |  |  | 42 | 34
CSCCC1NC2(CCN(C(=O)Nc3cccc(C#N)c3)CC2)N(Cc2ccc(F)cc2)C1=O (stereo not shown) [Example 244, 1-(4-Fluorobenzyl)-3-(2-methylsulfanylethyl)-2-oxo-1,4,8-triazaspiro[4,5]decan-8-carboxylic acid (3-cyanobenzol)amide] |  |  | 52 |  |  | 47 | 32
CS(=O)(=O)N1CCC2(CC1)NC(Cc1ccccc1)C(=O)N2Cc1ccccc1 (stereo not shown) [Example 246, 1,3-Dibenzyl-8-methansulfonyl-1,4,8-triazaspiro[4,5]decan-2-one] |  |  |  |  | 50 |  | 
